How the values were obtained:
[1] = log P by HPLC on reversed-phase column (C 18), EEC Directive 79/831 Annex V.A8; type: physicochemical; conditions: 55° C.; for LOGP_HCOOH: log P (HCOOH)
Description: Temperature: 55° C. […] Called log P (HCOOH) in the table. […] Called log P (neutral) in the table.

Phaedon cochleariae = Phaedon cochleariae spray test; type: in vivo; conditions: after 7 days, Chinese cabbage leaf discs
In short: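 Chinese cabbage leaf discs sprayed with compound in acetone/DMF and emulsifier-containing water, then infested with mustard beetle larvae once dry. Efficacy in % scored after 7 days (100% = all larvae killed, 0% = none).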

Musca domestica = Musca domestica test; type: in vivo; conditions: application rate 100 ppm, after 2 days, adult houseflies
Description: Musca domestica Test Solvent: dimethyl sulphoxide To produce a suitable active ingredient formulation, 10 mg of active ingredient are mixed with 0.5 ml of dimethyl sulphoxide, and the concentrate is diluted with water to the desired concentration. Vessels containing a sponge treated with sugar solution and the active ingredient formulation of the desired concentration are populated with 10 adult houseflies (Musca domestica). After 2 days, the kill in % is determined. 100% means that all of the flies have been killed; 0% means that none of the flies have been killed.

Ctenocephalides felis = Ctenocephalides felis oral test; type: in vivo; conditions: application rate 100 ppm in citrated cattle blood, after 2 days, adult cat fleas
In short: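 About 20 unfed adult cat fleas fed through a parafilm membrane on citrated cattle blood dosed with compound from a DMSO formulation. Percent kill was scored after 2 days.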

Lucilia cuprina = Lucilia cuprina test; type: in vivo; conditions: application rate 100 ppm, after 2 days, L1 larvae
Description: Lucilia cuprina Test Solvent: dimethyl sulphoxide To produce a suitable active ingredient formulation, 10 mg of active ingredient are mixed with 0.5 ml of dimethyl sulphoxide, and the concentrate is diluted with water to the desired concentration. About 20 L1 larvae of the Australian sheep blowfly (Lucilia cuprina) are transferred into a test vessel containing minced horsemeat and the active ingredient formulation of the desired concentration. After 2 days, the kill in % is determined. 100% means that all the larvae have been killed; 0% means that no larvae have been killed.

Spodoptera frugiperda = Spodoptera frugiperda spray test; type: in vivo; conditions: after 7 days, maize leaf discs
In short: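 Maize leaf discs were sprayed with compound formulated in acetone/DMF and emulsifier-containing water, dried, then infested with Spodoptera frugiperda caterpillars. Percent kill was scored after 7 days, from 100% (all dead) to 0% (none dead).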

[2] = acidic range pH 2.7, 0.1% aqueous formic acid and acetonitrile, reversed-phase column (C 18)
[3] = log P, neutral range, HPLC on reversed-phase column (C 18)
[4] = acidic range at pH 2.7, 0.1% aqueous formic acid and acetonitrile, HPLC on reversed-phase column (C 18)
[5] = log P (neutral), HPLC reversed-phase column (C 18)

| SMILES | LOGP_HCOOH [1, 2] | LOGP_NEUTRAL [1, 3] | efficacy (beetle larvae killed) (Phaedon cochleariae; application rate 100 g/ha) [%] | efficacy (beetle larvae killed) (Phaedon cochleariae; application rate 500 g/ha) [%] | efficacy (kill in %) (Musca domestica) [%] | efficacy (kill in %) (Ctenocephalides felis) [%] | efficacy (kill in %) (Lucilia cuprina) [%] | efficacy (caterpillars killed) (Spodoptera frugiperda; application rate 100 g/ha) [%] | efficacy (caterpillars killed) (Spodoptera frugiperda; application rate 500 g/ha) [%] | LOGP_HCOOH [1, 4] | LOGP_NEUTRAL [1, 5] |
| --- | --- | --- | --- | --- | --- | --- | --- | --- | --- | --- | --- |
| N#Cc1ccc(CNC(=O)c2cc(-c3ccc(C(F)(F)F)cc3)cc(NC(=O)C3CC3)n2)cc1F [Example I-026] | 3.87 | 3.79 | 100 | 100 | 100 | 100 | 100 | 100 | 100 | – | – |
| CC(NC(=O)c1cc(-c2ccc(C(F)(F)F)cc2)cc(NC(=O)C2CC2)n1)c1ccc(C#N)cc1 (centres unmarked) [Example I-040] | 4.01 | 3.94 | 100 | 100 | 90 | 98 | 100 | 83 | 100 | – | – |
| CC(C)C(=O)Nc1cc(-c2ccc(OC(F)(F)F)cc2)cc(C(=O)NCc2cc(F)c(C#N)c(F)c2)n1 [Example I-073] | 4.35 | 4.21 | – | – | 80 | 100 | 100 | 83 | 100 | – | – |
| N#Cc1cc(F)c(CNC(=O)c2cc(-c3ccc(C(F)(F)F)cc3)cc(NC(=O)C3CC3)n2)cc1F [Example I-074] | 4.05 | 3.90 | 100 | 100 | 100 | 100 | 100 | 100 | 100 | – | – |
| N#Cc1ccc(CNC(=O)c2cc(-c3ccc(C(F)(F)F)cc3)cc(NC(=O)C3CC3)n2)c(F)c1 [Example I-077] | 3.90 | 3.79 | 83 | 100 | 80 | 100 | 100 | 100 | 100 | – | – |
| CC(C)C(=O)Nc1cc(-c2ccc(C(F)(F)F)cc2)cc(C(=O)NCc2ccc(C#N)cc2F)n1 [Example I-078] | 3.99 | 3.96 | – | 100 | 100 | 100 | 100 | 100 | 100 | – | – |
| N#Cc1ccc(CNC(=O)c2cc(-c3ccc(OC(F)(F)F)cc3)cc(NC(=O)C3CC3)n2)c(F)c1 [Example I-079] | 4.03 | 3.91 | – | 100 | 90 | 100 | 100 | 100 | 100 | – | – |
| Cn1nccc1-c1ccc(CNC(=O)c2cc(-c3ccc(OC(F)(F)F)cc3)cc(NC(=O)C3CC3)n2)cc1 [Example I-107] | 3.86 | 3.80 | 100 | 100 | 90 | – | 100 | – | 100 | – | – |
| N#Cc1ccc(C2(NC(=O)c3cc(-c4ccc(OC(F)(F)F)cc4)cc(NC(=O)C4CC4)n3)CC2)cc1 [Example I-159] | – | 3.93 | – | – | 80 | 100 | 90 | 100 | 100 | 4.08 | – |
| N#Cc1ccc(CNC(=O)c2cc(-c3ccc(OC(F)(F)Cl)cc3)cc(NC(=O)C3CC3)n2)cc1 [Example I-190] | – | – | 100 | 100 | – | 100 | 100 | 100 | 100 | 4.09 | – |
| CC(F)(F)c1ccc(-c2cc(NC(=O)C3CC3)nc(C(=O)NCc3ccc(C#N)cc3)c2)cc1 [Example I-192] | – | 3.40 | 100 | 100 | – | 100 | 90 | 100 | 100 | 3.42 | – |
| N#Cc1ccc(CNC(=O)c2cc(-c3ccc(OC(F)(F)F)cc3)cc(NC(=O)C3CC(F)(F)C3)n2)cc1 [Example I-213] | – | 4.02 | 100 | 100 | – | 100 | 100 | 100 | – | 4.14 | – |
| CC(C)C(=O)N(C)c1cc(-c2ccc(OC(F)(F)F)cc2)cc(C(=O)NCc2ccc(C#N)cc2)n1 [Example I-217] | – | 3.89 | – | 83 | – | 80 | 100 | 100 | 100 | 4.02 | – |
| N#Cc1ccc(CNC(=O)c2cc(-c3ccc(C(F)(F)F)c(F)c3)cc(NC(=O)C3CC3)n2)cc1 [Example I-224] | – | 3.82 | 100 | 100 | – | 100 | 100 | 100 | 100 | 3.86 | – |
| N#Cc1ccc(CNC(=O)c2cc(-c3ccc(N(C(F)(F)F)C(F)(F)F)cc3)cc(NC(=O)C3CC3)n2)cc1 [Example I-225] | – | 4.34 | 100 | 100 | – | 100 | 100 | 100 | 100 | 4.40 | – |
| CC(NC(=O)c1cc(-c2ccc(OC(F)(F)F)cc2)cc(NC(=O)C2CC2)n1)c1ccc([N+](=O)[O-])cc1 (centres unmarked) [Example I-228] | – | – | – | 100 | – | 100 | 100 | 83 | 100 | 4.28 | – |
| CC(C#N)NC(=O)c1cc(-c2ccc(C(F)(F)C(F)(F)F)c(F)c2)cc(NC(=O)C2CC2)n1 (centres unmarked) [Example I-245] | 3.94 | – | 100 | 100 | – | 100 | 80 | 100 | 100 | – | – |
| CC(NC(=O)c1cc(-c2ccc(C(F)(F)C(F)(F)F)c(F)c2)cc(NC(=O)C2CC2)n1)c1ccc(C#N)cc1 (centres unmarked) [Example I-247] | 4.56 | – | 100 | 100 | – | 100 | 100 | 100 | 100 | – | 4.49 |
| N#Cc1cc(F)c(CNC(=O)c2cc(-c3ccc(C(F)(F)C(F)(F)F)c(F)c3)cc(NC(=O)C3CC3)n2)cc1F [Example I-249] | 4.51 | – | 100 | 100 | – | 100 | 100 | 100 | 100 | – | 4.51 |
| N#Cc1c(F)cc(CNC(=O)c2cc(-c3ccc(C(F)(F)C(F)(F)F)c(F)c3)cc(NC(=O)C3CC3)n2)cc1F [Example I-250] | 4.56 | – | 100 | 100 | – | 100 | 95 | 100 | 100 | – | 4.50 |

— patent publication US20190053492A1, “SUBSTITUTED PYRIDINE COMPOUNDS AS PESTICIDES” (Bayer CropScience Aktiengesellschaft, priority 2016, published 2019)
